What is called GI50 is the concentration at which growth is held to half of that of the control.

Among the test systems are SN12C; UO-31; SW-620; OVCAR-8; 786-0; NCI-H460; OVCAR-3; M14; OVCAR-4; SF-539; RXF 393; SK-MEL-5; SK-OV-3; HCC 2998; RPMI-8226; SR.
Common to all, as to experiment: DTP human tumour cell line panel, 48 h

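The compound was tested at five concentrations on cells cultured in 96-well plates, with a 48-hour exposure period. Here, GI50 denotes the concentration required for 50% inhibition of growth.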 Activity calls are given as the source filed them. No stated cut-off is given here; in the data, active = GI50 up to about 1.1 µM and inactive = higher. A value given as a limit tells only on which side of the number the result lay.

Consider `Cc1ccc(/N=N/C2S/C(=C(\C#N)c3nc4ccccc4[nH]3)N(c3ccccc3)C2=O)cc1` (stereo unspecified), for which the GI50 in the experiment with SN12C is > 100 µM (inactive); in the experiment with UO-31, 39 µM (inactive); in the experiment on SW-620, > 100 µM (inactive); with OVCAR-8 it was 56.1 µM (inactive); with 786-0, 27.3 µM (inactive); in the experiment with NCI-H460 it was > 100 µM (inactive). In addition, the GI50 with OVCAR-3 is > 100 µM (inactive); with M14, 89.1 µM (inactive); in the experiment with OVCAR-4 it was 42.8 µM (inactive); with SF-539, 43.6 µM (inactive); in the experiment on RXF 393, 28.8 µM (inactive); in the experiment on SK-MEL-5 it was > 100 µM (inactive). For the same compound, the GI50 with SK-OV-3 is > 100 µM (inactive).

In the case of `CC[n+]1c(/C=C/c2cc(C(=O)OC)n3c2sc2ccccc23)sc2ccccc21`, the GI50 in the experiment with SN12C is 23.1 µM (inactive); in the experiment with UO-31 it was 17.5 µM (inactive); with 786-0, 19.1 µM (inactive); with HCC 2998 it was 14.6 µM (inactive); in the experiment with RPMI-8226, > 10 µM (inactive); in the experiment on NCI-H460 it was 16.2 µM (inactive). Besides, the GI50 is > 10 µM (inactive) in the experiment on SR; 20.3 µM (inactive) in the experiment on OVCAR-3; 18.8 µM (inactive) with M14; 17.8 µM (inactive) in the experiment with OVCAR-4; 18.2 µM (inactive) in the experiment on SF-539; 15 µM (inactive) in the experiment with SK-MEL-5. In addition, in the experiment with SK-OV-3, the GI50 is 17.9 µM (inactive).

Take `O=c1ccccc2cccc(O)c12`: the GI50 with SN12C, in the experiment with SW-620, in the experiment with OVCAR-8, in the experiment with 786-0, in the experiment with HCC 2998 and in the experiment with RPMI-8226 was > 100 µM (inactive) in each case. Further, the GI50 in the experiment with NCI-H460, with OVCAR-3, in the experiment on M14, with OVCAR-4, in the experiment with SF-539 and in the experiment on RXF 393 was > 100 µM (inactive) in each case. Besides, the GI50 in the experiment on SK-MEL-5 and in the experiment on SK-OV-3 was > 100 µM (inactive) throughout.

Take `COc1cc(C2C(Cl)C(=O)N2NC(=O)c2ccc(N)cc2)ccc1O` (stereo unspecified): the GI50 is 32 µM (inactive) in the experiment with SN12C; > 100 µM (inactive) in the experiment with UO-31; 17.2 µM (inactive) in the experiment on SW-620; 21.5 µM (inactive) in the experiment with OVCAR-8; 19.1 µM (inactive) in the experiment on 786-0; 20.2 µM (inactive) in the experiment with HCC 2998. Further, the GI50 was 78 µM (inactive) in the experiment on RPMI-8226; 22.9 µM (inactive) in the experiment on NCI-H460; 16.6 µM (inactive) in the experiment with OVCAR-3; 51.8 µM (inactive) in the experiment with M14; 81.3 µM (inactive) in the experiment on OVCAR-4; 26.5 µM (inactive) in the experiment on SF-539. Further, the GI50 is 84.5 µM (inactive) in the experiment with SK-MEL-5 and 60.5 µM (inactive) in the experiment on SK-OV-3.

For `COC(=O)[C@]12CSCN1C(=O)C(C(C)=O)=NN2C(=O)[C@](OC)(c1ccccc1)C(F)(F)F`, the GI50 with SN12C, in the experiment on UO-31, in the experiment with SW-620, in the experiment on OVCAR-8, in the experiment with 786-0 and in the experiment on RPMI-8226 was > 100 µM (inactive) each time. Moreover, the GI50 in the experiment with NCI-H460 is > 100 µM (inactive); in the experiment with SR it was > 10 µM (inactive); in the experiment with OVCAR-3, > 100 µM (inactive); in the experiment on M14 it was > 100 µM (inactive); in the experiment with OVCAR-4 it was > 100 µM (inactive); in the experiment with SF-539, > 100 µM (inactive). The GI50 in the experiment on RXF 393 was 90.6 µM (inactive); in the experiment with SK-MEL-5, > 100 µM (inactive).

Take `COc1ccc(OCC(=O)O)c2c1CCC(C)C2=O` (stereo unspecified): the GI50 with SN12C, in the experiment on UO-31, in the experiment with SW-620, with OVCAR-8, with 786-0 and in the experiment with HCC 2998 was > 100 µM (inactive) in each case. The GI50 in the experiment on RPMI-8226, in the experiment with NCI-H460, in the experiment on OVCAR-3, with M14, in the experiment on OVCAR-4 and in the experiment with SF-539 was > 100 µM (inactive) in each case. For the same compound, the GI50 in the experiment on SK-MEL-5 and in the experiment on SK-OV-3 was > 100 µM (inactive) in each case.

Turning to `CCOC(=O)C(=O)Nc1c(N(CC)CC)n2ccccc2nc1=O`, the GI50 with SN12C, in the experiment on UO-31, with SW-620, in the experiment with OVCAR-8, in the experiment on 786-0 and with RPMI-8226 was > 100 µM (inactive) throughout. The GI50 with NCI-H460, in the experiment with SR, in the experiment with OVCAR-3, with M14, with SF-539 and with SK-MEL-5 was > 100 µM (inactive) each time. Further, the GI50 in the experiment with SK-OV-3 was > 100 µM (inactive).

As for `O=c1ccn([C@H]2CSC[C@@H](CO)C2)c(=O)[nH]1`, the GI50 in the experiment on SN12C, in the experiment on UO-31, in the experiment with SW-620, in the experiment on OVCAR-8, in the experiment on 786-0 and with HCC 2998 was > 100 µM (inactive) throughout. Moreover, the GI50 in the experiment on RPMI-8226, with NCI-H460, in the experiment with OVCAR-3, in the experiment with M14, in the experiment with OVCAR-4 and in the experiment with SF-539 was > 100 µM (inactive) throughout. Also, the GI50 in the experiment on SK-MEL-5 and in the experiment on SK-OV-3 was > 100 µM (inactive) throughout.

Turning to `CC(=O)NNc1nc(C)c(C(=O)/C=C/c2ccc(Cl)c(Cl)c2)s1`, the GI50 in the experiment with SN12C, in the experiment with UO-31, in the experiment on SW-620, in the experiment with OVCAR-8, with 786-0 and in the experiment with HCC 2998 was > 100 µM (inactive) in each case. For the same compound, the GI50 in the experiment on RPMI-8226, in the experiment with NCI-H460, in the experiment with OVCAR-3, in the experiment with SF-539, in the experiment on RXF 393 and in the experiment with SK-MEL-5 was > 100 µM (inactive) throughout. The GI50 in the experiment on SK-OV-3 is > 100 µM (inactive).

On to `CN1C2(c3ccccc3)c3c(-c4ccccc4)sc(-c4ccccc4)c3C1(c1ccccc1)C1C(=O)N(c3ccccc3)C(=O)C12` (stereo unspecified), for which the GI50 with SN12C, in the experiment with UO-31, with SW-620, in the experiment with OVCAR-8, in the experiment on 786-0 and in the experiment with HCC 2998 was > 100 µM (inactive) throughout. The GI50 in the experiment with RPMI-8226, in the experiment with NCI-H460, in the experiment with OVCAR-3, with M14, in the experiment with OVCAR-4 and in the experiment on SF-539 was > 100 µM (inactive) throughout. Besides, the GI50 with RXF 393, in the experiment with SK-MEL-5 and in the experiment with SK-OV-3 was > 100 µM (inactive) in each case.

Take `CCCCCCC1CCC2CCCC(C)N12` (stereo unspecified): the GI50 in the experiment with SN12C was 95.9 µM (inactive); in the experiment with UO-31 it was 19.7 µM (inactive); in the experiment with SW-620, 14.8 µM (inactive); in the experiment on OVCAR-8, 45.6 µM (inactive); with 786-0, 30.1 µM (inactive); in the experiment with HCC 2998 it was 22.6 µM (inactive). Also, the GI50 in the experiment with RPMI-8226 is 22.9 µM (inactive); with NCI-H460, 23.7 µM (inactive); with SR, 23.2 µM (inactive); in the experiment on OVCAR-3, > 100 µM (inactive); in the experiment with M14 it was 25.3 µM (inactive); in the experiment with OVCAR-4, 46.2 µM (inactive). Also, the GI50 in the experiment with SF-539 is 76 µM (inactive); in the experiment with SK-MEL-5 it was 49.8 µM (inactive).

In the case of `Cc1cc(N)c(C)c2c1[nH]c1ccc(O)cc12`, the GI50 in the experiment with SN12C was > 100 µM (inactive); with UO-31 it was > 100 µM (inactive); in the experiment with SW-620 it was 39.1 µM (inactive); in the experiment on OVCAR-8, 88.5 µM (inactive); in the experiment on 786-0, 91.8 µM (inactive); with HCC 2998, > 100 µM (inactive). The GI50 with RPMI-8226 was 48.4 µM (inactive); in the experiment on NCI-H460 it was > 100 µM (inactive); in the experiment on SR it was 45 µM (inactive); in the experiment on OVCAR-3 it was 50.6 µM (inactive); in the experiment with M14 it was > 100 µM (inactive); in the experiment on OVCAR-4, > 100 µM (inactive). Further, in the experiment on SF-539, the GI50 is > 100 µM (inactive).

As for `CN(C)/C=N\c1cc[nH]c(=O)n1`, the GI50 with SN12C, with UO-31, with SW-620, with OVCAR-8, in the experiment with 786-0 and in the experiment with RPMI-8226 was > 100 µM (inactive) in each case. Besides, the GI50 in the experiment on NCI-H460, with OVCAR-3, in the experiment with M14, in the experiment on OVCAR-4, in the experiment with SF-539 and with RXF 393 was > 100 µM (inactive) each time. For the same compound, the GI50 in the experiment with SK-MEL-5 and in the experiment with SK-OV-3 was > 100 µM (inactive) in each case.

With `CC(=O)O[C@H]1C(=O)[C@@]2(C)C(C(OC(=O)c3ccccc3)[C@]3(O)CC(OC(=O)C(O)C(NC(=O)c4ccc(C)cc4)c4ccccc4)C(C)=C1C3(C)C)[C@]1(OC(C)=O)CO[C@@H]1C[C@@H]2O` (stereo partly specified), the GI50 in the experiment on SN12C was 0.0112 µM (active); in the experiment with UO-31, 0.826 µM (active); in the experiment on OVCAR-8, 0.00426 µM (active); with 786-0, 0.0074 µM (active); with RPMI-8226, < 0.0025 µM (active); in the experiment with NCI-H460, < 0.0025 µM (active). Besides, the GI50 in the experiment on OVCAR-3 was < 0.0025 µM (active); with M14, < 0.0025 µM (active); in the experiment on OVCAR-4 it was 3.2 µM (inactive); in the experiment with SF-539, < 0.0025 µM (active); in the experiment on RXF 393, 0.00628 µM (active); with SK-MEL-5, 0.00402 µM (active). Moreover, the GI50 in the experiment on SK-OV-3 is < 0.0025 µM (active).

The values are drawn from ChEMBL document CHEMBL1201862, “PubChem BioAssay data set” (2004).
